Values joined by “and” are separate entries in the source; they are usually repeats but may differ in a detail not shown here. Equal entries are not always repeated.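 Five compound concentrations were applied to cells in 96-well plates for 48 hours; endpoints were derived by simple linear interpolation of the resulting dose-response curve. GI50: concentration for 50% inhibition of growth. TGI denotes the concentration required for complete inhibition of growth.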 Where a SMILES comes first, the peptide text is derived from it. The star is where a group is joined. Boc = CC(C)(C)OC(=O)*
Tested on: A498 renal
Test: growth of human tumour cells (NCI), 48 h

Row | Structure (SMILES) | GI50 [µM] | TGI
1 | COc1cc(/C=C\c2cc(OC)c(OC)c(OC)c2)cc(N/C=C\C(=O)c2cc(OC)c(OC)c(OC)c2)c1OC | 2.4 | 7.89 µM
2 | Cn1c(=O)c(Oc2ccc(F)cc2)cc2cnc(NC3CCOCC3)nc21 | 13.4 | > 25 µM
3 | CC1(C)N=C(N)N=C(N)N1c1ccc(CCCCc2ccc(Cl)c(S(=O)(=O)F)c2)c(Cl)c1 | 5.56 | 25.7 µM
4 | Clc1nc(Cl)nc(Nc2cccc3ccccc23)n1 | > 100 | > 100 µM
5 | Cc1cc2cc3c(=O)[nH]c(=O)[nH]c3nc2cc1C |  | > 100 µM
6 | CC(C)OC(=O)[C@H](C)NP(=O)(OC[C@H]1O[C@@H](n2ccc(=O)[nH]c2=O)[C@](C)(F)[C@@H]1O)Oc1ccccc1 (some centres undefined) | > 100 | > 100 µM
7 | BrCc1cccc(C[P+](c2ccccc2)(c2ccccc2)c2ccccc2)c1 | 59.5 | > 100 µM
8 | CN(C)c1ncnc2c1ncn2CCn1cnc2c(N(C)C)ncnc21 |  | > 100 µM
9 | O=C(O)c1ccc(C(=O)O)c2c(C(=O)O)ccc(C(=O)O)c12 |  | > 100 µM
10 | CSc1nc(NC2OC(COC(C)=O)C(OC(C)=O)C(OC(C)=O)C2OC(C)=O)c(N=CC=Nc2c(NC3OC(COC(C)=O)C(OC(C)=O)C(OC(C)=O)C3OC(C)=O)nc(SC)n(C)c2=O)c(=O)n1C (centres undefined) | > 50 | > 50 µM and 82.8 µM
11 | O=S(=O)(Nc1ccc(Cl)cc1Cl)c1ccc(-c2cnc(C3CC3)o2)cc1 | 0.197 | 0.875 µM
12 | O=C(/C=C/C=C/c1ccccc1)c1ccccc1 |  | 31.5 µM
13 | C#Cc1nc(Nc2cc(C)[nH]n2)c2ccccc2n1 | 0.139 | 0.3 µM
14 | Cc1nc2cc(Nc3nc(Nc4ccc(F)cc4)nc(-c4cccs4)n3)ccc2n1Cc1ccccc1 | 5.41 | 73.3 µM

Tested on: UACC-257 melanoma
Test: growth of human tumour cells (NCI), 48 h

Row | Structure (SMILES) | GI50 | TGI
15 | Cn1c(Nc2ccc(C(F)(F)F)cc2)nc2cc(Oc3ccnc(-c4ncc(C(F)(F)F)[nH]4)c3)ccc21 | 0.131 µM | 0.977 µM
16 | C[C@@]12CCC[C@@](C)(C(=O)O)C1CC[C@]13CC(=O)[C@](CO)(C1)[C@@H](O)CC32 (some centres undefined) | > 100 µM | > 100 µM
17 | O=[N+]([O-])c1ccc(CI)cc1 | 3.47 µM | 15.5 µM
18 | CN(C)C/C=C/C(=O)Nc1cc2c(Nc3ccc(F)c(Cl)c3)ncnc2cc1O[C@H]1CCOC1 | 1.46 µM and 3.34 µM | 3.09 µM and > 10 µM
19 | COc1cc(/C=C/C(=O)c2cccc(-n3cc(-c4ccc(Cl)cc4)[nH]c3=O)c2)ccc1O | 5.53 µM | 18.6 µM
20 | CCN(Cc1ccc(F)cc1)c1ccc(CO)c(Br)c1 | 0.0406 µM | 0.185 µM
21 | COc1ccc(-c2cc(/C=C/C(=O)c3ccc(OC)c(OC)c3)[nH]n2)cc1 | 1.73 µM | 3.65 µM
22 | CC1(Br)Cc2ccccc2C1=O (centres undefined) | 13.3 µM | 29.2 µM
23 | CN(C)C(=S)Sc1ccc([N+](=O)[O-])cc1[N+](=O)[O-] | 1.75 µM | 4.9 µM
24 | CCOC(=O)/C=C/c1ccc(C#Cc2ccccc2)cc1 | > 100 µM | > 100 µM
25 | COc1ccc(C(O)(CCC(C)C)C(CN2CCOCC2)c2ccc(Cl)cc2)cc1 (centres undefined) | 13.4 µM | 33 µM
26 | COc1cc(/C=C\c2cc(OC)c(OC)c(OC)c2)cc(N/C=C\C(=O)c2cc(OC)c(OC)c(OC)c2)c1OC | > 100 µM | > 100 µM
27 | Cn1c(=O)c(Oc2ccc(F)cc2)cc2cnc(NC3CCOCC3)nc21 | > 25 µM | > 25 µM
28 | CC1(C)N=C(N)N=C(N)N1c1ccc(CCCCc2ccc(Cl)c(S(=O)(=O)F)c2)c(Cl)c1 | 3.78 µM | 18.4 µM
29 | Clc1nc(Cl)nc(Nc2cccc3ccccc23)n1 | > 100 µM | > 100 µM
30 | Cc1cc2cc3c(=O)[nH]c(=O)[nH]c3nc2cc1C |  | > 100 µM
31 | CC(C)OC(=O)[C@H](C)NP(=O)(OC[C@H]1O[C@@H](n2ccc(=O)[nH]c2=O)[C@](C)(F)[C@@H]1O)Oc1ccccc1 (some centres undefined) | > 100 µM | > 100 µM
32 | BrCc1cccc(C[P+](c2ccccc2)(c2ccccc2)c2ccccc2)c1 | 5.49 µM | > 100 µM
33 | CN(C)c1ncnc2c1ncn2CCn1cnc2c(N(C)C)ncnc21 |  | > 100 µM
34 | O=C(O)c1ccc(C(=O)O)c2c(C(=O)O)ccc(C(=O)O)c12 |  | > 100 µM
35 | CSc1nc(NC2OC(COC(C)=O)C(OC(C)=O)C(OC(C)=O)C2OC(C)=O)c(N=CC=Nc2c(NC3OC(COC(C)=O)C(OC(C)=O)C(OC(C)=O)C3OC(C)=O)nc(SC)n(C)c2=O)c(=O)n1C (centres undefined) | > 50 µM | > 100 µM
36 | O=S(=O)(Nc1ccc(Cl)cc1Cl)c1ccc(-c2cnc(C3CC3)o2)cc1 | 10.5 µM | 60.5 µM
37 | O=C(/C=C/C=C/c1ccccc1)c1ccccc1 |  | 34.2 µM
38 | C#Cc1nc(Nc2cc(C)[nH]n2)c2ccccc2n1 | 0.2 µM | 0.631 µM
39 | COC(=O)C(C)NC(=O)C(CCSC)NC(=O)C(Cc1ccccc1)NC(=O)OC(C)(C)C (stereo not drawn) (Boc-Phe-Met-Ala-OMe; configuration not given here) |  | > 100 µM
40 | Cc1nc2cc(Nc3nc(Nc4ccc(F)cc4)nc(-c4cccs4)n3)ccc2n1Cc1ccccc1 | 5.42 µM | 30.1 µM

Tested on: NCI/ADR-RES ovarian
Test: growth of human tumour cells (NCI), 48 h

Row | Structure (SMILES) | GI50 | TGI
41 | Cn1c(Nc2ccc(C(F)(F)F)cc2)nc2cc(Oc3ccnc(-c4ncc(C(F)(F)F)[nH]4)c3)ccc21 | 1.64 µM | 13.4 µM
42 | C[C@@]12CCC[C@@](C)(C(=O)O)C1CC[C@]13CC(=O)[C@](CO)(C1)[C@@H](O)CC32 (some centres undefined) | > 100 µM | > 100 µM
43 | O=[N+]([O-])c1ccc(CI)cc1 | 3.15 µM | 11.2 µM
44 | CN(C)C/C=C/C(=O)Nc1cc2c(Nc3ccc(F)c(Cl)c3)ncnc2cc1O[C@H]1CCOC1 | 2.27 µM and 1.92 µM | 14.8 µM and > 10 µM
45 | COc1cc(/C=C/C(=O)c2cccc(-n3cc(-c4ccc(Cl)cc4)[nH]c3=O)c2)ccc1O | 2.78 µM | > 30.5 µM
46 | CCN(Cc1ccc(F)cc1)c1ccc(CO)c(Br)c1 | 13.4 µM | 46.8 µM
47 | COc1ccc(-c2cc(/C=C/C(=O)c3ccc(OC)c(OC)c3)[nH]n2)cc1 | 3.44 µM | 24.8 µM
48 | Oc1ccc(Nc2c3ccccc3nc3occ(Cl)c23)cc1 | 2.69 µM | 18.2 µM
49 | CC1(Br)Cc2ccccc2C1=O (centres undefined) |  | > 100 µM
50 | CN(C)C(=S)Sc1ccc([N+](=O)[O-])cc1[N+](=O)[O-] | 4.73 µM | 16.8 µM
51 | CCOC(=O)/C=C/c1ccc(C#Cc2ccccc2)cc1 | > 100 µM | > 100 µM
52 | COc1ccc(C(O)(CCC(C)C)C(CN2CCOCC2)c2ccc(Cl)cc2)cc1 (centres undefined) | 11.1 µM | 34.2 µM
53 | COc1cc(/C=C\c2cc(OC)c(OC)c(OC)c2)cc(N/C=C\C(=O)c2cc(OC)c(OC)c(OC)c2)c1OC | 3.12 µM | > 100 µM
54 | Cn1c(=O)c(Oc2ccc(F)cc2)cc2cnc(NC3CCOCC3)nc21 | > 25 µM | > 25 µM
55 | CC1(C)N=C(N)N=C(N)N1c1ccc(CCCCc2ccc(Cl)c(S(=O)(=O)F)c2)c(Cl)c1 | 40 µM | > 100 µM
56 | Clc1nc(Cl)nc(Nc2cccc3ccccc23)n1 | > 100 µM | > 100 µM
57 | Cc1cc2cc3c(=O)[nH]c(=O)[nH]c3nc2cc1C |  | > 100 µM
58 | CC(C)OC(=O)[C@H](C)NP(=O)(OC[C@H]1O[C@@H](n2ccc(=O)[nH]c2=O)[C@](C)(F)[C@@H]1O)Oc1ccccc1 (some centres undefined) | > 100 µM | > 100 µM
59 | BrCc1cccc(C[P+](c2ccccc2)(c2ccccc2)c2ccccc2)c1 | > 100 µM | > 100 µM
60 | CN(C)c1ncnc2c1ncn2CCn1cnc2c(N(C)C)ncnc21 |  | > 100 µM
61 | O=C(O)c1ccc(C(=O)O)c2c(C(=O)O)ccc(C(=O)O)c12 |  | > 100 µM
62 | CSc1nc(NC2OC(COC(C)=O)C(OC(C)=O)C(OC(C)=O)C2OC(C)=O)c(N=CC=Nc2c(NC3OC(COC(C)=O)C(OC(C)=O)C(OC(C)=O)C3OC(C)=O)nc(SC)n(C)c2=O)c(=O)n1C (centres undefined) | > 50 µM | > 100 µM
63 | O=S(=O)(Nc1ccc(Cl)cc1Cl)c1ccc(-c2cnc(C3CC3)o2)cc1 | 0.51 µM | 17.5 µM
64 | O=C(/C=C/C=C/c1ccccc1)c1ccccc1 |  | 27.1 µM
65 | C#Cc1nc(Nc2cc(C)[nH]n2)c2ccccc2n1 | 0.402 µM | > 100 µM
66 | COC(=O)C(C)NC(=O)C(CCSC)NC(=O)C(Cc1ccccc1)NC(=O)OC(C)(C)C (stereo not drawn) (Boc-Phe-Met-Ala-OMe; configuration not given here) |  | > 100 µM
67 | Cc1nc2cc(Nc3nc(Nc4ccc(F)cc4)nc(-c4cccs4)n3)ccc2n1Cc1ccccc1 | 3.66 µM | 32.1 µM

Source: PubChem BioAssay (NCI)
